Assay results published in US7288573B2, “Method of repelling insects” (priority 2001, dated 2007).
“And” between values parts separate entries of the source, which are not always exact repeats. Identical values can stand only once. “Also recorded” adds a separate entry of the source.

Experiments:
Aedes aegypti = assay: Mosquito repellency of 2-undecanone versus DEET and Citronella in mineral oil (Example 9); assay type: in vivo; settings: for Percent Efficacy Post-Treatment / NP, Mean / Percent (percent of mosquitoes responding, landings on the treated hand/arm) / NP / number of bites recorded / observed repellent activity (words): 20% in mineral oil; for NP: single replicates; for observed repellent activity (words): observed 0 to 12 hours
Description: Cages. Two mosquitoes cages were used for this experiment. The cages were constructed using wood framing and fine mesh wire screen. The dimensions of each cage were 59 cm high×55 cm wide by 59 cm deep. A hinged access door was installed at the front of each chamber for insertion of the water-filled containers filled with mosquito larvae. Also present at the front of each chamber was a 9 cm (I.D.) diameter plastic tube for insertion of the arm of the investigator. The arm insertion tube was sealed with a rubber stopper when not in use.
Mosquitoes and Mosquito Rearing. Mosquitoes (Aedes aegypti) were obtained as eggs from Dr. Gary Benzon (Benzon Research, Inc., Carlisle, Pa. 17013, USA) and allowed to hatch at three successive intervals so as to provide a continuing long-term supply of fresh insects. Following their arrival, the egg rafts were divided into approximately equal numbers in multiple water-filled containers within the test chambers, which also served as emergence cages. Following hatching, the larval cultures were fed with insect rearing compound supplied by United States Department of Agriculture, Gainesville, Fla., USA, courtesy of a person The water in the breeding chambers was changed regularly at two or three day intervals by filtration to minimize contamination and prevent overcrowding. Mosquitoes were bred throughout the 3-week study period in order to maintain a continuing supply of fresh insects (see below) and build up the population, usually exceeding 100 insects per cage.
Test Compounds and Testing Schedule. Testing was done with the mineral oil formulation of 2-undecanone for repellent activity by treating one arm of the investigator with approximately 1 ml of the test formulation. To avoid excessive bites and development of severe allergic reactions from multiple mosquito bites, treatments were applied to removable strips of cotton cloth taped to all parts of the investigator's hand and arm. Treatments were applied in a separate room, far from the mosquito cages. Following several minutes for the oil to soak in place, the cloth strips saturated with the treatment solution was attached to the investigator's wrist. Then, the treated arm was inserted through the insertion tube for 5 minutes. The other arm was treated with mineral oil (control) or a different compound and inserted into the insertion tube of the adjacent chamber. Next, the behavior of the mosquitoes in response to the presence of the investigator's arms was noted. Mosquito behavior was recorded as 1) landing or attempting to land on the investigator's hand or arm; 2) biting and sucking blood; or 3) dispersal away from the treated hand and arm towards the opposite ends of the cage. The approximate number of mosquitoes present in the cage at the beginning of each observation was noted. Treatments were alternated between the different cages. Each observation was repeated 3 times.
2-undecanone, DEET and Citronella arrived as liquids mixed in mineral oil in sealed plastic vials. To prepare the compounds for testing, the stocks were shaken vigorously to thoroughly mix the compounds in the mineral oil carrier, the vials opened and 1 ml samples applied directly as described above.
Observations. Mosquitoes were recorded as 1) repelled if they dispersed away from the treated hand/arm, changed course while in flight after approaching the treated hand/arm, touched the treated hand/arm and quickly withdrew; versus 2) not repelled if they landed on the treated hand/arm and remained on the cloth or skin of the investigator, or bit the investigator and sucked blood. The number of bites during the exposure period also was recorded.
[…] Efficacy was calculated according to the formula: Efficacy=[(no.landings/no.present in control)−(no.landings/no. present in experimental) divided by (no.landings/no.present in control)]×100.

Culex spp. = assay: Mosquito repellency of 2-undecanone, treated arm in cage (Example 5); assay type: in vivo; settings: for No. landings: single replicates; for observed mosquito behavior / repellent effect (words): observed at 0, 3 and 6 hours
Description: Two mosquitoes cages were constructed using wood framing and fine mesh wire screen. The dimensions of each cage were 59 cm high×55 cm wide×59 cm deep. A hinged access door was installed at the front of each chamber for insertion of the water-filled containers filled with mosquito pupae. Also present at the front of each chamber was a 9 cm diameter plastic tube (i.d.) for insertion of the arm of the investigator. The arm insertion tube was sealed with a rubber stopper when not in use.
Mosquitoes (Culex spp.) were obtained (as pupae) from Carolina Biological Supply Co., Burlington, N.C., USA. Following their arrival, the mosquitoes were divided into approximately equal numbers in two water-filled containers and placed in the two cages described above. Some of the mosquitoes had hatched upon arrival.
Testing was done with 2-undecanone for repellent activity by treating one arm of the investigator with approximately 1 ml of the test solution. Following several minutes for solvent evaporation, the treated arm was inserted through the insertion tube for 5 minutes. The other arm was treated with ethanol (control) or a different concentration of 2-undecanone, and inserted into the insertion tube of the adjacent chamber. Next, the behavior of the mosquitoes in response to the presence of the investigator's arms was noted. Mosquito behavior was recorded as 1) landing or attempting to land on the investigator's arm, versus 2) dispersal away from the treated arm towards the opposite ends of the cage. The approximate number of mosquitoes present at the beginning of the observations was noted. The observations were repeated (without re-treatment of the investigator's hand and arm) after 3 hours and again after 6 hours. Treatments were alternated between the different cages. Each observation was repeated 3 times. Tests were done with 20%, 5%, 2%, 0.5% 2-undecanone, 20% DEET, and the ethanol control.
With one exception, none of the mosquitoes succeeded in biting, although mosquitoes that landed on the investigator's arm were dislodged by flicking the arm or hand. In most cases, any physical movement of the hand or arm will induce the mosquito to leave. Thus, few if any bites were expected. Landings on the arm were considered as evidence of attraction, with intent to bite.

[1] = 20% on arm, 0 hours after treatment
[2] = 20% on arm, 3 hours after treatment
[3] = 20% on arm, 6 hours after treatment
[4] = 0.5% on arm, 6 hours after treatment
[5] = 2% on arm, 6 hours after treatment
[6] = 5% on arm, 0 hours after treatment
[7] = 5% on arm, 3 hours after treatment
[8] = 5% on arm, 6 hours after treatment

CCN(CC)C(=O)c1cccc(C)c1 [DEET, N,N-diethyl-meta-toluamide, reference compound] was tested, and the “Percent Efficacy Post-Treatment” value (Aedes aegypti; 0 hours) was 96.0%, the “NP, Mean” value (Aedes aegypti; 0 hours after treatment) was 2.0 and the “Percent (percent of mosquitoes responding, landings on the treated hand/arm)” value (Aedes aegypti; 0 hours after treatment) was 2.3%. The NP (Aedes aegypti; 0 hours after treatment) was 3 (2×) and 1 (2×), the “Percent Efficacy Post-Treatment” value (Aedes aegypti; 3 hours) was 73.9% and the “NP, Mean” value (Aedes aegypti; 3 hours after treatment) was 18.7. For the same compound, the “Percent (percent of mosquitoes responding, landings on the treated hand/arm)” value (Aedes aegypti; 3 hours after treatment) was 13.1%, the NP (Aedes aegypti; 3 hours after treatment) was 22 and 11 and 23 and the “Percent Efficacy Post-Treatment” value (Aedes aegypti; 6 hours) was 75.9%. For the same compound, the “NP, Mean” value (Aedes aegypti; 6 hours after treatment) was 21.7, the “Percent (percent of mosquitoes responding, landings on the treated hand/arm)” value (Aedes aegypti; 6 hours after treatment) was 16.5% and the NP (Aedes aegypti; 6 hours after treatment) was 31 and 21 and 13. For the same compound, the “Percent Efficacy Post-Treatment” value (Aedes aegypti; 9 hours) was 85.3%, the “number of bites recorded” value (Aedes aegypti; 9 hours (later intervals)) was 2 and the “NP, Mean” value (Aedes aegypti; 9 hours after treatment) was 7.3. The “Percent (percent of mosquitoes responding, landings on the treated hand/arm)” value (Aedes aegypti; 9 hours after treatment) was 9.4%, the NP (Aedes aegypti; 9 hours after treatment) was 11 and 7 and 4 and the “Percent Efficacy Post-Treatment” value (Aedes aegypti; 12 hours) was 71.3%. For the same compound, the “number of bites recorded” value (Aedes aegypti; 12 hours) was 22, the “NP, Mean” value (Aedes aegypti; 12 hours after treatment) was 28.7 and the “Percent (percent of mosquitoes responding, landings on the treated hand/arm)” value (Aedes aegypti; 12 hours after treatment) was 16.2%. For the same compound, the NP (Aedes aegypti; 12 hours after treatment) was 16 and 37 and 33, the “observed repellent activity (words)” value (Aedes aegypti) was “strong repellent activity, similar to that observed for 2-undecanone” and the “number of bites recorded” value (Aedes aegypti; zero hours) was “one”. For the same compound, the “No. landings, Mean” value (Culex spp.; [1]) was 0, the No. landings (Culex spp.; [1]) was 0 and the “No. landings, Mean” value (Culex spp.; [2]) was 0. The No. landings (Culex spp.; [2]) was 0, the “No. landings, Mean” value (Culex spp.; [3]) was 0.3 and the No. landings (Culex spp.; [3]) was 1 and 0 (2×). For the same compound, the “observed mosquito behavior / repellent effect (words)” value (Culex spp.; 20% on arm) was “The effect persisted after 3 hours, but was largely lost after 6 hours”.

With CCCCCCCCCC(C)=O [2-undecanone] the “residual activity” value (Aedes aegypti; 1% concentration) was “none after 3 hours”, the “duration of residual activity” value (Aedes aegypti; 5% level) was “up to 12 hours” and the “duration of residual efficacy” value (Aedes aegypti; 20% concentration in mineral oil) was “up to 12 hours”. The “Percent Efficacy Post-Treatment” value (Aedes aegypti; 0 hours) was 96.5%, the “NP, Mean” value (Aedes aegypti; 0 hours after treatment) was 2.3 and the “Percent (percent of mosquitoes responding, landings on the treated hand/arm)” value (Aedes aegypti; 0 hours after treatment) was 2.0%. For the same compound, the NP (Aedes aegypti; 0 hours after treatment) was 2 (3×) and 0 and 3 and 5, the “Percent Efficacy Post-Treatment” value (Aedes aegypti; 3 hours) was 90.1% and the “NP, Mean” value (Aedes aegypti; 3 hours after treatment) was 3.7. For the same compound, the “Percent (percent of mosquitoes responding, landings on the treated hand/arm)” value (Aedes aegypti; 3 hours after treatment) was 5.0%, the NP (Aedes aegypti; 3 hours after treatment) was 1 and 6 and 4 and the “Percent Efficacy Post-Treatment” value (Aedes aegypti; 6 hours) was 78.5%. The “NP, Mean” value (Aedes aegypti; 6 hours after treatment) was 24.7, the “Percent (percent of mosquitoes responding, landings on the treated hand/arm)” value (Aedes aegypti; 6 hours after treatment) was 14.7% and the NP (Aedes aegypti; 6 hours after treatment) was 24 and 21 and 29. For the same compound, the “Percent Efficacy Post-Treatment” value (Aedes aegypti; 9 hours) was 81.5%, the “NP, Mean” value (Aedes aegypti; 9 hours after treatment) was 4.7 and the “Percent (percent of mosquitoes responding, landings on the treated hand/arm)” value (Aedes aegypti; 9 hours after treatment) was 11.8%. For the same compound, the NP (Aedes aegypti; 9 hours after treatment) was 6 and 1 and 7, the “Percent Efficacy Post-Treatment” value (Aedes aegypti; 12 hours) was 78.4% and the “number of bites recorded” value (Aedes aegypti; 12 hours) was 4. For the same compound, the “NP, Mean” value (Aedes aegypti; 12 hours after treatment) was 7.7, the “Percent (percent of mosquitoes responding, landings on the treated hand/arm)” value (Aedes aegypti; 12 hours after treatment) was 12.2% and the NP (Aedes aegypti; 12 hours after treatment) was 4 and 8 and 11. For the same compound, the “observed repellent activity (words)” value (Aedes aegypti) was “exceeding the efficacy of DEET (20%) and Citronella; also recorded: strong repellent activity”, the “observed repellent activity (words)” value (Aedes aegypti; listed as 2-Undecanone) was “Comments: The 2-undecanone formulation was highly repellent. At zero hours, all; also recorded: No bites were observed until 12 hours” and the “number of bites recorded” value (Aedes aegypti; zero hours) was “None attempted to feed”. The “No. landings, Mean” value (Culex spp.; 0.5% on arm, 0 hours after treatment) was 0.7, the “No. landings, Mean” value (Culex spp.; 0.5% on arm, 3 hours after treatment) was 0.7 and the “No. landings, Mean” value (Culex spp.; [4]) was 0.3. The No. landings (Culex spp.; [4]) was 0 (2×) and 1, the “observed mosquito behavior / repellent effect (words)” value (Culex spp.; 0.5% on arm) was “no differences between the treated arm and the ethanol controls were observed” and the “observed mosquito behavior / repellent effect (words)” value (Culex spp.; 0.5% on arm, listed as Undecanone) was “throughout the cage. No obvious avoidance, no dispersal away from”. For the same compound, the “No. landings, Mean” value (Culex spp.; 2% on arm, 0 hours after treatment) was 0.7, the “No. landings, Mean” value (Culex spp.; 2% on arm, 3 hours after treatment) was 1.0 and the “No. landings, Mean” value (Culex spp.; [5]) was 0.7. The No. landings (Culex spp.; [5]) was 1 (2×) and 0, the “observed mosquito behavior / repellent effect (words)” value (Culex spp.; 2% on arm) was “at three hours after treatment, there was no effect” and the “No. landings, Mean” value (Culex spp.; [6]) was 0. For the same compound, the No. landings (Culex spp.; [6]) was 0, the “No. landings, Mean” value (Culex spp.; [7]) was 0 and the No. landings (Culex spp.; [7]) was 0. The “No. landings, Mean” value (Culex spp.; [8]) was 1.0, the No. landings (Culex spp.; [8]) was 1 and the “observed mosquito behavior / repellent effect (words)” value (Culex spp.; 5% on arm) was “immediate and obvious repellent behavior; also recorded: The effect was absent after 6 hours”. The “observed mosquito behavior / repellent effect (words)” value (Culex spp.; 5% on arm, listed as Undecanone) was “Comments: The formulation was highly repellent. Mosquitoes”, the “No. landings, Mean” value (Culex spp.; [1]) was 0 and the No. landings (Culex spp.; [1]) was 0. The “No. landings, Mean” value (Culex spp.; [2]) was 0, the No. landings (Culex spp.; [2]) was 0 and the “No. landings, Mean” value (Culex spp.; [3]) was 0. For the same compound, the No. landings (Culex spp.; [3]) was 0, the “observed mosquito behavior / repellent effect (words)” value (Culex spp.; 20% on arm) was “the effect was lost after 6 hours” and the “concentrations with the strongest repellent effect” value (Culex spp.; tested at 20%, 5%, 2%, 0.5%) was “strongest effect at the 5% and 20% concentrations”.
